Several values for one entry are separate records, joined by “and”; a condition that tells them apart may be missing. Equal entries are not always repeated.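 All cell lines were grown in 96-well plates and treated with compound for 48 hours. GI50 marks 50% less growth. TGI is the concentration that stops growth completely.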
Key:
Assay in all cases: inhibition of tumour cell growth, NCI panel, 48 h
LOX IMVI melanoma = test system: LOX IMVI melanoma
SK-MEL-2 melanoma = test system: SK-MEL-2 melanoma
CCRF-CEM leukemia = test system: CCRF-CEM leukemia
MOLT-4 leukemia = test system: MOLT-4 leukemia
OVCAR-5 ovarian = test system: OVCAR-5 ovarian
KM12 colon = test system: KM12 colon
MDA-N = test system: MDA-N
HOP-62 NSCLC = test system: HOP-62 NSCLC
UO-31 renal = test system: UO-31 renal
NCI-H460 lung = test system: NCI-H460 lung
HS 578T breast = test system: HS 578T breast
ACHN renal = test system: ACHN renal
SNB-19 CNS = test system: SNB-19 CNS
K-562 leukemia = test system: K-562 leukemia
NCI/ADR-RES ovarian = test system: NCI/ADR-RES ovarian
M14 melanoma = test system: M14 melanoma
HCT-116 colon = test system: HCT-116 colon
SK-MEL-5 melanoma = test system: SK-MEL-5 melanoma

Row | Compound | TGI (LOX IMVI melanoma) [µM] | TGI (SK-MEL-2 melanoma) [µM] | TGI (CCRF-CEM leukemia) [µM] | TGI (MOLT-4 leukemia) [µM] | TGI (OVCAR-5 ovarian) [µM] | TGI (KM12 colon) [µM] | TGI (MDA-N) [µM] | TGI (HOP-62 NSCLC) [µM] | TGI (UO-31 renal) [µM] | TGI (NCI-H460 lung) [µM] | TGI (HS 578T breast) [µM] | TGI (ACHN renal) [µM] | TGI (SNB-19 CNS) [µM] | TGI (K-562 leukemia) [µM] | TGI (NCI/ADR-RES ovarian) [µM] | TGI (M14 melanoma) [µM] | TGI (HCT-116 colon) [µM] | TGI (SK-MEL-5 melanoma) [µM] | GI50 (HS 578T breast) | GI50 (K-562 leukemia)
1 | COc1ccc(-c2c(N)n(-c3nc4ccccc4s3)c(=O)c3cc([N+](=O)[O-])ccc23)cc1 | 48.3 | > 100 | > 100 | 49.2 | 56.7 | > 100 | > 100 | 27 | 46.7 | 32.5 | 37.3 | 69.9 | > 100 | > 100 | 78.1 | 47.6 | > 100 | – | – | –
2 | O=C(NCCCCCCCCNC(=O)c1cc(-c2ccccc2)nc2ccccc12)c1cc(-c2ccccc2)nc2ccccc12 | > 100 | – | > 100 | > 100 | > 100 | – | > 100 | > 100 | > 100 | > 100 | > 100 | > 100 | > 100 | > 100 | > 100 | > 100 | > 100 | > 100 | – | –
3 | CC1(C)CS(=O)(=O)CC(C)(C)C(=N/N)/C1=N\N | > 100 | > 100 | – | – | > 100 | > 100 | > 100 | > 100 | – | > 100 | > 100 | > 100 | > 100 | > 100 | > 100 | > 100 | > 100 | > 100 | – | –
4 | Cc1ccc(/C=N/Nc2cnccn2)s1 | > 100 | > 100 | > 100 | > 100 | > 100 | > 100 | > 100 | > 100 | > 100 | – | > 100 | > 100 | > 100 | > 100 | > 100 | > 100 | > 100 | > 100 | – | –
5 | CCOC(=O)c1sc2c(c1OC(=O)c1cccs1)c(=O)n(-c1ccccc1)c(=S)n2-c1ccccc1 | 36.3 | – | 36 | 40 | 50.7 | 42.3 | > 100 | 50.3 | 0.925 | 12.4 | 83 | 37.6 | 88.5 | > 100 | 31.4 | 33.4 | 22 | 32 | – | –
6 | COc1c2c(cc3oc(C)cc(=O)c13)OC(=N)C(C(N)=O)C2CC(=O)c1ccc(N)cc1 (stereo not given) | > 100 | > 100 | > 100 | > 100 | > 100 | > 100 | > 100 | – | > 100 | > 100 | > 100 | > 100 | > 100 | > 100 | > 100 | > 100 | > 100 | > 100 | – | –
7 | Fc1ccc2nc3n(c2c1)C(c1c(F)cccc1F)SC3 (stereo not given) | > 100 | > 100 | – | > 100 | > 100 | > 100 | 85.3 | > 100 | > 100 | > 100 | > 100 | > 100 | > 100 | – | > 100 | > 100 | > 100 | > 100 | – | –
8 | COc1ccc(NS(=O)CCCc2ccccc2)cc1 (stereo not given) | > 100 | > 100 | > 100 | > 100 | > 100 | > 100 | > 100 | > 100 | > 100 | > 100 | > 100 | > 100 | > 100 | > 100 | > 100 | – | > 100 | > 100 | – | –
9 | COCn1c2ccc(OC(C)=O)cc2c2c(=O)oc(N(C)C)nc21 | > 100 | > 100 | > 100 | > 100 | > 100 | > 100 | > 100 | > 100 | – | > 100 | > 100 | > 100 | > 100 | > 100 | > 100 | > 100 | > 100 | > 100 | – | –
10 | CN(/N=C(\C(=O)O)c1ccccc1)C1=NCCCN1 | > 100 | > 100 | > 100 | > 100 | > 100 | > 100 | > 100 | > 100 | > 100 | > 100 | > 100 | > 100 | – | > 100 | > 100 | – | > 100 | > 100 | – | –
11 | COc1ccccc1NC(=O)/C(Cc1nc2ccc([N+](=O)[O-])cc2[nH]c1=O)=N\NC(=O)C[N+](C)(C)C | > 100 | > 100 | 94.5 | > 100 | > 100 | > 100 | 36 | > 100 | > 100 | > 100 | > 100 | > 100 | > 100 | – | > 100 | > 100 | > 100 | > 100 | – | –
12 | CCC1(CC)CC(=NNS(=O)(=O)c2ccc(C)cc2)C1 | > 100 | > 100 | > 100 | > 100 | > 100 | > 100 | > 100 | – | > 100 | > 100 | > 100 | > 100 | > 100 | > 100 | > 100 | > 100 | > 100 | > 100 | – | –
13 | O=C(NCc1cccnc1)NCc1cccnc1 | > 100 | > 100 | – | – | > 100 | > 100 | > 100 | > 100 | > 100 | > 100 | > 100 | > 100 | > 100 | > 100 | > 100 | > 100 | > 100 | > 100 | – | –
14 | CC(=O)OC1C(O)COC(O[C@H]2CC[C@]34C[C@]35CC[C@]3(C)C([C@@]6(C)CC[C@@H](C(C)(C)O)O6)[C@@H](O)C[C@@]3(C)C5C[C@H](OC3OCC(O)C(O)C3O)[C@H]4C2(C)C)C1OC1OCC(O)C(O)C1O (stereo not given in full) | > 100 | > 100 | – | > 100 | > 100 | > 100 | > 100 | > 100 | > 100 | > 100 | > 100 | > 100 | > 100 | > 100 | > 100 | > 100 | > 100 | > 100 | – | –
15 | O=c1oc2ccccc2c(Nc2ccc3c(c2)S(=O)(=O)c2ccccc2O3)c1[N+](=O)[O-] | > 100 | 46.4 | 83.5 | – | > 100 | > 100 | 85.3 | > 100 | 99.4 | 91.7 | > 100 | 70.2 | > 100 | 71.3 | > 100 | > 100 | 65 | 50.1 | – | –
16 | COc1ccc(N2C(=O)C3c4[nH]c5ccc(C)cc5c4C4CCC(C)CC4C3C2=O)cc1 (stereo not given) | > 100 | > 100 | > 100 | > 100 | > 100 | – | > 100 | – | > 100 | > 100 | 37.2 | > 100 | > 100 | > 100 | > 100 | > 100 | > 100 | > 100 | – | –
17 | O=[N+]([O-])/C=C1\COCc2cc3c(cc21)OCO3 | 71.5 | – | 39.1 | > 100 | 43.4 | 28.4 | 40.4 | > 100 | 34.7 | 93.8 | 80.7 | 43.3 | – | > 100 | 43.4 | 26.9 | 39.6 | 39.9 | – | –
18 | CC1=NN(c2ccccc2)C(=O)/C1=C/c1ccc(O)cc1 | > 100 | > 100 | > 100 | > 100 | > 100 | > 100 | > 100 | – | – | > 100 | > 100 | > 100 | > 100 | > 100 | > 100 | > 100 | > 100 | > 100 | – | –
19 | O=C(c1ccccc1)c1ccc(COc2ccc(C(c3c(O)c4ccccc4oc3=O)c3c(O)c4ccccc4oc3=O)cc2)cc1 | 56.5 | 34.9 | 16.4 | 45.4 | 38.9 | 29.6 | 62 | 47.4 | 77.3 | 48.6 | > 100 | 38.1 | 58.6 | 53.3 | 40.9 | – | > 100 | 37.2 | – | –
20 | C#CCOCC12C=CC(O1)C1C(=O)N(C)C(=O)C12 (stereo not given) | > 100 | – | > 100 | > 100 | > 100 | > 100 | > 100 | > 100 | > 100 | > 100 | > 100 | > 100 | > 100 | > 100 | > 100 | > 100 | > 100 | > 100 | > 100 µM and 20 µM | 46.4 µM and > 100 µM
21 | COc1ccc(NC(=O)/C(=N\NC(=O)C[n+]2ccccc2)c2c(O)c3ccc(O)cc3oc2=O)c([N+](=O)[O-])c1 | > 100 | > 100 | > 100 | > 100 | > 100 | > 100 | > 100 | – | > 100 | > 100 | > 100 | > 100 | > 100 | > 100 | > 100 | > 100 | > 100 | > 100 | – | –

Reference: PubChem BioAssay (NCI)
